The numbers were not newly measured in article PMC8513935, which cites them from elsewhere.

SMILES strings stand for the structures.

Data set [1] can be described thus: log P octanol/water from commercial databases, averaged (the ESI). The settings on record: Octanol (wet), 25 C.
Data set [2] can be described thus: experimental, compiled by the authors from the literature (the ESI cites the sources).
Data set [3] in a line: derived by the authors as gas->solvent minus gas->water (a hypothetical dry solvent; the ESI), not a two-phase measurement.

With `C=CC`, the log K of transfer, water to solvent in data set [1] was 1.77 log10 K; in data set [3] (2-Methylpropan-1-ol, 25 C) it was 1.92 log10 K; in data set [3] (2-Methylpropan-2-ol, 25 C), 1.96 log10 K; in data set [3] (3-Methylbutan-1-ol, 25 C) it was 1.93 log10 K; in data set [3] (Butan-1-ol, 25 C), 2 log10 K; in data set [3] (Butan-2-ol, 25 C), 1.94 log10 K. Besides, the log K of transfer, water to solvent in data set [3] (Butanone, 25 C) was 2.1 log10 K; in data set [3] (CCl4, 25 C), 2.32 log10 K; in data set [3] (Hexadecane, 25 C), 1.92 log10 K; in data set [3] (Hexane, 25 C) it was 2.25 log10 K; in data set [3] (Methanol, 25 C), 1.92 log10 K; in data set [3] (Pentan-1-ol, 25 C), 1.94 log10 K. In addition, the log K of transfer, water to solvent in data set [3] (Propan-1-ol, 25 C) was 1.96 log10 K; in data set [3] (Propan-2-ol, 25 C), 1.94 log10 K. Further, the log K of transfer, gas to solvent in data set [2] (2-Methylpropan-1-ol, 25 C) was 0.95 log10 K; in data set [2] (2-Methylpropan-2-ol, 25 C) it was 0.99 log10 K; in data set [2] (3-Methylbutan-1-ol, 25 C), 0.963 log10 K; in data set [2] (Butan-1-ol, 25 C) it was 1.03 log10 K; in data set [2] (Butan-2-ol, 25 C) it was 0.97 log10 K; in data set [2] (Butanone, 25 C), 1.13 log10 K. The log K of transfer, gas to solvent in data set [2] (CCl4, 25 C) is 1.35 log10 K; in data set [2] (Hexadecane, 25 C), 0.946 log10 K; in data set [2] (Hexane, 25 C) it was 1.29 log10 K; in data set [2] (Methanol, 25 C) it was 0.95 log10 K; in data set [2] (Pentan-1-ol, 25 C), 0.97 log10 K; in data set [2] (Propan-1-ol, 25 C), 0.99 log10 K. Moreover, the log K of transfer, gas to solvent in data set [2] (Propan-2-ol, 25 C) was 0.97 log10 K; in data set [2] (Water, 25 C) it was -0.97 log10 K.

In the case of `CCC(C)CC`, the log K of transfer, water to solvent in data set [1] was 3.6 log10 K; in data set [3] (Butan-1-ol, 25 C), 4.18 log10 K; in data set [3] (Hexadecane, 25 C), 4.42 log10 K; in data set [3] (Pentan-1-ol, 25 C), 4.28 log10 K. The log K of transfer, gas to solvent is 2.34 log10 K in data set [2] (Butan-1-ol, 25 C); 2.58 log10 K in data set [2] (Hexadecane, 25 C); 2.44 log10 K in data set [2] (Pentan-1-ol, 25 C); -1.84 log10 K in data set [2] (Water, 25 C).

Turning to `CCCCN`, the log K of transfer, water to solvent in data set [1] is 0.97 log10 K; in data set [3] (1,2-Dichloroethane, 25 C) it was 0.18 log10 K; in data set [3] (Benzene, 25 C), 0.06 log10 K; in data set [3] (CCl4, 25 C), 0.04 log10 K; in data set [3] (Chlorobenzene, 25 C), -0.05 log10 K; in data set [3] (Chloroform, 25 C), 0.75 log10 K. Besides, the log K of transfer, water to solvent in data set [3] (Cyclohexane, 25 C) is -0.488 log10 K; in data set [3] (Di-n-butyl ether, 25 C), -0.43 log10 K; in data set [3] (Hexadecane, 25 C), -0.492 log10 K; in data set [3] (Octan-1-ol(dry), 25 C) it was 0.5 log10 K; in data set [3] (Toluene, 25 C), 0.14 log10 K. Also, the log K of transfer, gas to solvent in data set [2] (1,2-Dichloroethane, 25 C) was 3.29 log10 K; in data set [2] (Benzene, 25 C), 3.17 log10 K; in data set [2] (CCl4, 25 C), 3.15 log10 K; in data set [2] (Chlorobenzene, 25 C), 3.06 log10 K; in data set [2] (Chloroform, 25 C) it was 3.86 log10 K; in data set [2] (Cyclohexane, 25 C), 2.62 log10 K. Moreover, the log K of transfer, gas to solvent was 2.68 log10 K in data set [2] (Di-n-butyl ether, 25 C); 2.62 log10 K in data set [2] (Hexadecane, 25 C); 3.61 log10 K in data set [2] (Octan-1-ol, 25 C); 3.25 log10 K in data set [2] (Toluene, 25 C); 3.11 log10 K in data set [2] (Water, 25 C).

Turning to `CCCC(C)O` (stereo not drawn), the log K of transfer, water to solvent in data set [1] is 1.25 log10 K; in data set [3] (1,2-Dichloroethane, 25 C), 0.78 log10 K; in data set [3] (CCl4, 25 C), 0.23 log10 K; in data set [3] (Hexadecane, 25 C) it was -0.38 log10 K. Further, the log K of transfer, gas to solvent is 4 log10 K in data set [2] (1,2-Dichloroethane, 25 C); 3.45 log10 K in data set [2] (CCl4, 25 C); 2.84 log10 K in data set [2] (Hexadecane, 25 C); 3.22 log10 K in data set [2] (Water, 25 C).

Take `CCCCl`: the log K of transfer, water to solvent was 2.04 log10 K in data set [1]; 2.47 log10 K in data set [3] (1,2-Dichloroethane, 25 C); 2.08 log10 K in data set [3] (Butan-1-ol, 25 C); 2.46 log10 K in data set [3] (Butanone, 25 C); 2.47 log10 K in data set [3] (CCl4, 25 C); 2.41 log10 K in data set [3] (Chloroform, 25 C). Besides, the log K of transfer, water to solvent in data set [3] (Cyclohexanone, 25 C) is 2.45 log10 K; in data set [3] (Hexadecane, 25 C) it was 1.96 log10 K; in data set [3] (Hexane, 25 C) it was 2.23 log10 K; in data set [3] (Octan-1-ol(dry), 25 C), 2 log10 K. The log K of transfer, gas to solvent in data set [2] (1,2-Dichloroethane, 25 C) was 2.71 log10 K; in data set [2] (Butan-1-ol, 25 C), 2.32 log10 K; in data set [2] (Butanone, 25 C), 2.7 log10 K; in data set [2] (CCl4, 25 C) it was 2.71 log10 K; in data set [2] (Chloroform, 25 C) it was 2.65 log10 K; in data set [2] (Cyclohexanone, 25 C), 2.69 log10 K. For the same compound, the log K of transfer, gas to solvent was 2.2 log10 K in data set [2] (Hexadecane, 25 C); 2.47 log10 K in data set [2] (Hexane, 25 C); 2.24 log10 K in data set [2] (Octan-1-ol, 25 C); 0.24 log10 K in data set [2] (Water, 25 C).

For `CC1CCCC1`, the log K of transfer, water to solvent in data set [1] is 3.37 log10 K; in data set [3] (Heptan-1-ol, 25 C), 3.74 log10 K; in data set [3] (Hexadecane, 25 C), 4.07 log10 K; in data set [3] (Pentan-1-ol, 25 C) it was 3.74 log10 K. Moreover, the log K of transfer, gas to solvent was 2.57 log10 K in data set [2] (Heptan-1-ol, 25 C); 2.91 log10 K in data set [2] (Hexadecane, 25 C); 2.57 log10 K in data set [2] (Pentan-1-ol, 25 C); -1.17 log10 K in data set [2] (Water, 25 C).

As for `CC(C)SC(C)C`, the log K of transfer, water to solvent in data set [1] was 2.52 log10 K; in data set [3] (Hexadecane, 25 C) it was 2.65 log10 K. Moreover, the log K of transfer, gas to solvent in data set [2] (Hexadecane, 25 C) was 3.54 log10 K; in data set [2] (Water, 25 C), 0.89 log10 K.

Take `O=C1CCCC1`: the log K of transfer, water to solvent in data set [1] was 0.38 log10 K; in data set [3] (1,2-Dichloroethane, 25 C), 1.14 log10 K; in data set [3] (CCl4, 25 C) it was 0.61 log10 K; in data set [3] (Di-n-butyl ether, 25 C), 0.08 log10 K; in data set [3] (Hexadecane, 25 C), -0.229 log10 K; in data set [3] (Octan-1-ol(dry), 25 C), 0.22 log10 K. The log K of transfer, gas to solvent in data set [2] (1,2-Dichloroethane, 25 C) is 4.59 log10 K; in data set [2] (CCl4, 25 C), 4.06 log10 K; in data set [2] (Di-n-butyl ether, 25 C), 3.53 log10 K; in data set [2] (Hexadecane, 25 C) it was 3.22 log10 K; in data set [2] (Octan-1-ol, 25 C) it was 3.67 log10 K; in data set [2] (Water, 25 C) it was 3.45 log10 K.

Regarding `CCC(=O)CC`, the log K of transfer, water to solvent in data set [1] was 0.82 log10 K; in data set [3] (Cyclohexane, 25 C), 0.65 log10 K; in data set [3] (Hexadecane, 25 C), 0.311 log10 K; in data set [3] (Octan-1-ol(dry), 25 C), 0.7 log10 K. Also, the log K of transfer, gas to solvent in data set [2] (Cyclohexane, 25 C) is 3.15 log10 K; in data set [2] (Hexadecane, 25 C), 2.81 log10 K; in data set [2] (Octan-1-ol, 25 C), 3.2 log10 K; in data set [2] (Water, 25 C), 2.5 log10 K.

Consider `CCCCC(C)=O`, for which the log K of transfer, water to solvent in data set [1] is 1.38 log10 K; in data set [3] (Benzene, 25 C), 1.81 log10 K; in data set [3] (CCl4, 25 C) it was 1.52 log10 K; in data set [3] (Chlorobenzene, 25 C) it was 1.87 log10 K; in data set [3] (Cyclohexane, 25 C) it was 1.02 log10 K; in data set [3] (Hexadecane, 25 C), 0.876 log10 K. For the same compound, the log K of transfer, water to solvent in data set [3] (Hexane, 25 C) is 1.02 log10 K; in data set [3] (Methanol, 25 C), 1.41 log10 K; in data set [3] (Octan-1-ol(dry), 25 C), 1.27 log10 K; in data set [3] (Toluene, 25 C), 1.7 log10 K. Moreover, the log K of transfer, gas to solvent in data set [2] (Benzene, 25 C) was 4.22 log10 K; in data set [2] (CCl4, 25 C), 3.93 log10 K; in data set [2] (Chlorobenzene, 25 C), 4.28 log10 K; in data set [2] (Cyclohexane, 25 C) it was 3.42 log10 K; in data set [2] (Hexadecane, 25 C), 3.28 log10 K; in data set [2] (Hexane, 25 C) it was 3.43 log10 K. The log K of transfer, gas to solvent in data set [2] (Methanol, 25 C) is 3.82 log10 K; in data set [2] (Octan-1-ol, 25 C), 3.68 log10 K; in data set [2] (Toluene, 25 C) it was 4.11 log10 K; in data set [2] (Water, 25 C) it was 2.41 log10 K.
